Molecules are shown by their SMILES. Calls of active or inactive are those of the source. The calls are words filed in the database; no cut-off is given here.

The nature of data set [1]: Metabolic stability in mouse liver microsomes assessed as intrinsic clearance at 1 uM measured upto 60 mins in presence of NADPH regenerating system by LC-MS/MS analysis. The data set is classed as ADME, Microsome. To be noted: read-out: CLH.
Data set [2] is described as follows: Cytotoxicity against African green monkey Vero E6 cells incubated for 48 hrs by neutral red uptake assay. The data set is classed as toxicity, cell-based, Vero C1008. To be noted: chlorocebus sabaeus.
The conditions of data set [3]: mouse, microsomes, 1 h, 1 µM.
In data set [4] the target is Replicase polyprotein 1ab (Severe acute respiratory syndrome coronavirus 2, UniProt P0DTD1). Nature of the data set: biochemical.
Data set [5] has as its target Replicase polyprotein 1ab (Severe acute respiratory syndrome coronavirus 2) (UniProt P0DTD1). The conditions noted are these: BetaCoV/Wuhan/WIV04/2019, dose 40.0 µM, time 30.0 min.
The nature of the next data set: in vitro. To be noted: mouse, liver microsomes.

For orientation: CC50 means the concentration that lowers cell viability or growth by half. Consider `Cc1ccc(O)cc1CN(C)[C@H](C)c1cccc2ccccc12`, for which, in data set [1], the microsomal CLint at 1 µM was found to be 2490 µL/min/mg. For the same compound, half-maximal cytotoxicity in data set [2] (CC50 at 48 h) was put at 14.4 µM.
For `Cc1ccc(OCCN)cc1C(=O)N[C@H](C)c1cccc(-c2ccsc2)c1`, in data set [3], the t1/2 is 1.958 h. Besides, the microsomal CLint at 1 µM in data set [1] was determined as 11.8 µL/min/mg. The same compound yielded a CC50 at 48 h in data set [2] above 30 µM.
The IC50 is the midpoint of a concentration-inhibition curve. On to `Cc1ccc(OCCN)cc1C(=O)N[C@H](C)c1cccc(-c2ccn(C)c2C)c1`, for which the IC50 in data set [4] is 3.35 µM.
In data set [4], `Cc1ccc(OCCN)cc1C(=O)N[C@H](C)c1cccc(-c2ccc(F)cc2)c1` showed an IC50 of 1.22 µM.
In turn, `C[C@H](c1cccc2ccccc12)N(C)Cc1c[nH]c2ccc(F)cc12` gave a CC50 at 48 h in data set [2] of 32.5 µM.
With `COc1cc([N+](=O)[O-])ccc1CN(C)[C@H](C)c1cccc2ccccc12`, the outcome in data set [5] was Active. In addition, the CC50 at 48 h in data set [2] is above 100 µM.
For the compound `C[C@H](c1cccc2ccccc12)N(C)Cc1ccc2cn[nH]c2c1`, in data set [2], the CC50 at 48 h came out at 28.3 µM.
In data set [4], `Cc1ccc(OCCN)cc1C(=O)N[C@H](C)c1cccc(-c2ccc(CNC3CC3)s2)c1` gave a half-inhibitory concentration (IC50) of 0.94 µM.
As usually defined, the half-life is how long it takes for the measured level to halve. In the case of `C[C@H](c1cccc2ccccc12)N(C)Cc1ccc(O)cc1`, in data set [1], the microsomal CLint at 1 µM came to 779 µL/min/mg. This compound also displayed a cytotoxic concentration (CC50) at 48 h in data set [2] of 23.7 µM. In “in vitro”, this compound returned a half-life at 1 h, 1 µM of 1.8 min.
`Cc1ccc(OCCN)cc1C(=O)N[C@H](C)c1cccc(-c2ccc(O)cc2)c1`: the t1/2 in data set [3] came to 0.962 h. Moreover, the microsomal CLint at 1 µM in data set [1] turned out to be 24 µL/min/mg. Moreover, half-maximal cytotoxicity in data set [2] (CC50 at 48 h) was put at 45.2 µM.
The compound `Cc1ccc(OCCN)cc1C(=O)N[C@H](C)c1cccc(-c2c(C)noc2C)c1` had an IC50 in data set [4] of 1.48 µM.
Take `Cc1ccc(OCCN)cc1C(=O)N[C@H](C)c1cccc(-c2ccc(C#N)s2)c1`: in data set [2], the midpoint of cytotoxicity, the CC50 at 48 h, lay at 15 µM.
In data set [4], `Cc1ccc(OCCN)cc1C(=O)N[C@H](C)c1cccc(-c2cnn(Cc3ccccc3)c2)c1` gave an IC50 of 1.03 µM.
With `C[C@H](c1cccc2ccccc12)N(C)Cc1ccc2[nH]ncc2c1`, the CC50 at 48 h in data set [2] worked out at 35.5 µM.
For the compound `Cc1ccc(OCCN)cc1C(=O)N[C@H](C)c1cccc(-c2cn[nH]c2)c1`, in data set [4], the midpoint of inhibition, the IC50, lay at 1.49 µM.
In turn, `C[C@H](c1cccc2ccccc12)N(C)Cc1c[nH]c2ccccc12` yielded a 50% cytotoxic concentration (CC50) at 48 h in data set [2] of 24.7 µM.
Compound `Cc1ccc(OCCN)cc1C(=O)N[C@H](C)c1cccc(-c2ccccc2O)c1` came in with an IC50 in data set [4] of 2.25 µM.
On the same count and under the same terms, next, `Cc1ccc(OCCN)cc1C(=O)N[C@H](C)c1cccc(-c2ccc(C#N)cc2)c1`: 0.89 µM; `Cc1ccc(OCCN)cc1C(=O)N[C@H](C)c1cccc(-c2ccc(F)cc2F)c1`: 1.54 µM.
In the case of `Cc1ccc(NC2CNC2)cc1CN(C)[C@H](C)c1cccc2ccccc12`, in data set [3], the t1/2 is 1.673 h. In addition, the microsomal CLint at 1 µM in data set [1] amounted to 13.8 µL/min/mg. Further, the half-maximal cytotoxic concentration (CC50) at 48 h in data set [2] was 13.7 µM.
On to `Cc1ccc(OCCN)cc1C(=O)N[C@H](C)c1cccc(-c2ccoc2)c1`, for which, in data set [3], the t1/2 was determined as 0.897 h. The microsomal CLint at 1 µM in data set [1] was determined as 25.7 µL/min/mg. Further, the result in data set [5] was Active. The compound further showed a half-maximal cytotoxic concentration (CC50) at 48 h in data set [2] of 103 µM.
In data set [4], `COCCn1cc(-c2cccc([C@@H](C)NC(=O)c3cc(OCCN)ccc3C)c2)cn1` registered an IC50 of 1.51 µM.
The compound `Cc1ccc(OCCN)cc1C(=O)N[C@H](C)c1cccc(-c2cccs2)c1` displayed a t1/2 in data set [3] above 2.42 h. Moreover, in data set [1], the microsomal CLint at 1 µM is below 9.6 µL/min/mg. In data set [2], this compound yielded a CC50 at 48 h of 15.2 µM.
Turning to `Cc1ccc(OCCN)cc1C(=O)N[C@H](C)c1cccc(-c2ccc3c(c2)CCO3)c1`, in data set [4], the concentration for half-maximal inhibition (IC50) amounted to 1.08 µM.
For `C[C@H](c1cccc2ccccc12)N(C)Cc1ccc(O)cc1O`, the outcome in data set [5] was Active. The compound further yielded a CC50 at 48 h in data set [2] of 31.5 µM.
In turn, `Cc1ccc(OCCN)cc1C(=O)N[C@H](C)c1cccc(-c2cnc(N(C)C)nc2)c1` had an IC50 in data set [4] above 20 µM.
Still for that read-out and setting: the same measure for `Cc1ccc(OCCN)cc1C(=O)N[C@H](C)c1cccc(-c2c[nH]nc2C)c1`: 1.96 µM; for `Cc1ccc(OCCN)cc1C(=O)N[C@H](C)c1cccc(-c2cnn(C)c2)c1`: 0.96 µM; for `C[C@H](c1cccc(-c2ccc(CN3CCCC3)s2)c1)N(C)Cc1cccc2[nH]ccc12`: 3.39 µM.
In turn, `C[C@H](c1cccc2ccccc12)N(C)Cc1c[nH]c2cc(F)ccc12` gave a cytotoxic concentration (CC50) at 48 h in data set [2] of 31.8 µM.
For the compound `COc1cc(O)ccc1CN(C)[C@@H](C)c1cccc(-c2ccc(CN3CCCC3)s2)c1`, it took 3 µM to reach half-maximal inhibition in data set [4] (IC50).
Still for that read-out and setting: the same measure for `C[C@H](c1cccc(-c2cccs2)c1)N(C)Cc1c[nH]c2cc(F)ccc12`: 2.34 µM.
As for `Cc1ccc(OCCN)cc1C(=O)N[C@H](C)c1cccc(-c2ccn[nH]2)c1`, in data set [4], the 50% inhibitory concentration (IC50) worked out at 1.16 µM.
Same read-out and setting: next, `Cc1ccc(OCCN)cc1C(=O)N[C@H](C)c1cccc(-c2cnn(C(F)F)c2)c1`: 1.14 µM; `C[C@H](c1cccc(-c2cccs2)c1)N(C)Cc1ccc(O)cc1O`: 5.03 µM.
The same measure, in the same setting: the same measure for `Cc1ccc(OCCN)cc1C(=O)N[C@H](C)c1cccc(-c2ccc3c(c2)OCCO3)c1`: 0.97 µM.
For the compound `Cc1ccc(OCCN)cc1C(=O)N[C@H](C)c1cccc2ccccc12`, in data set [3], the t1/2 is above 2.42 h. Further, in data set [1], the microsomal CLint at 1 µM is below 9.6 µL/min/mg.
For `C[C@H](c1cccc(-c2cccs2)c1)N(C)Cc1c[nH]c2ccc(F)cc12`, in data set [4], the IC50 stood at 2.66 µM.
The same measure, in the same setting: next, `Cc1ccc(OCCN)cc1C(=O)N[C@H](C)c1cccc(-c2ccnn2C)c1`: 2.78 µM.
Still for that read-out and setting: next, `C[C@H](c1cccc(-c2ccc(CN3CCCC3)s2)c1)N(C)Cc1ccc2[nH]ncc2c1`: 7.09 µM; `C[C@H](c1cccc(-c2cccs2)c1)N(C)Cc1ccc2cn[nH]c2c1`: 2.36 µM.

The values above are taken from ChEMBL document CHEMBL5528015, “Structure-based design of SARS-CoV-2 papain-like protease inhibitors” (Eur J Med Chem, 2024).
